Values joined by “and” are separate entries in the source; they are usually repeats but may differ in a detail not shown here. Identical values can stand only once.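 Five compound concentrations were applied to cells in 96-well plates for 48 hours; endpoints were derived by simple linear interpolation of the resulting dose-response curve. GI50 marks 50% less growth. TGI denotes the concentration required for complete inhibition of growth.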
Key:
Assay in all cases: NCI tumour cell line growth inhibition, 48 h
[1] = test system: SF-539 CNS
[2] = test system: OVCAR-3 ovarian
[3] = test system: SN12C renal
[4] = test system: HOP-62 NSCLC
[5] = test system: SF-295 CNS
[6] = test system: HT29 colon
[7] = test system: SNB-75 CNS
[8] = test system: NCI-H460 lung
[9] = test system: ACHN renal
[10] = test system: NCI-H23 lung
[11] = test system: TK-10 renal
[12] = test system: A549 NSCLC
[13] = test system: U251 CNS
[14] = test system: UACC-257 melanoma
[15] = test system: OVCAR-5 ovarian
[16] = test system: SK-OV-3 ovarian
[17] = test system: HCT-15 colon
[18] = test system: PC-3 prostate
[19] = test system: HL-60(TB) leukemia
[20] = test system: CCRF-CEM leukemia
[21] = test system: DU-145 prostate
[22] = test system: SK-MEL-5 melanoma
[23] = test system: NCI/ADR-RES ovarian
[24] = test system: MDA-MB-435
[25] = test system: KM12 colon
[26] = test system: SF-268 CNS
[27] = test system: BT-549 breast
[28] = test system: MDA-N
[29] = test system: MCF7 breast
[30] = test system: SK-MEL-2 melanoma
[31] = test system: HCT-116 colon
[32] = test system: UO-31 renal
[33] = test system: OVCAR-4 ovarian
[34] = test system: 786-0 renal
[35] = test system: SW-620 colon
[36] = test system: SK-MEL-28 melanoma
[37] = test system: OVCAR-8 ovarian
[38] = test system: SNB-19 CNS
[39] = test system: M14 melanoma
[40] = test system: COLO 205 colon
[41] = test system: UACC-62 melanoma
[42] = test system: HCC-2998 colon
[43] = test system: MDA-MB-231 breast
[44] = test system: EKVX NSCLC
[45] = test system: MOLT-4 leukemia
[46] = test system: HOP-92 NSCLC
[47] = test system: SR leukemia
[48] = test system: CAKI-1 renal
[49] = test system: K-562 leukemia
[50] = test system: A498 renal
[51] = test system: LOX IMVI melanoma
[52] = test system: RXF 393 renal
[53] = test system: RPMI-8226 leukemia
[54] = test system: T-47D breast
[55] = test system: IGROV1 ovarian
[56] = test system: MALME-3M melanoma
[57] = test system: HS 578T breast
[58] = test system: NCI-H522 lung
[59] = test system: NCI-H226 lung

Compound Fc1cccc(C2SCC3=Nc4ccccc4CN32)c1 (stereo not given) has a TGI [1] greater than 100 µM, a TGI [2] of 70.5 µM and a TGI [3] greater than 100 µM. The TGI [4] was greater than 100 µM, the TGI [5] was greater than 100 µM and the TGI [6] was 74.3 µM. For the same compound, the TGI [7] was greater than 100 µM, the TGI [8] was greater than 100 µM and the TGI [9] was greater than 100 µM. It also gave a TGI [10] greater than 100 µM, a TGI [11] greater than 100 µM and a TGI [12] greater than 100 µM. The TGI [13] was greater than 100 µM, the TGI [14] was greater than 100 µM and the TGI [15] was greater than 100 µM. For the same compound, the TGI [16] was greater than 100 µM, the TGI [17] was greater than 100 µM and the TGI [18] was greater than 100 µM. For the same compound, the TGI [19] was greater than 100 µM, the TGI [20] was greater than 100 µM and the TGI [21] was greater than 100 µM. For the same compound, the TGI [22] was 41.1 µM, the TGI [23] was 35.9 µM and the TGI [24] was greater than 100 µM. The TGI [25] was greater than 100 µM, the TGI [26] was greater than 100 µM and the TGI [27] was greater than 100 µM. It also gave a TGI [28] greater than 100 µM, a TGI [29] greater than 100 µM and a TGI [30] of 49.7 µM. For the same compound, the TGI [31] was 88.6 µM, the TGI [32] was greater than 100 µM and the TGI [33] was greater than 100 µM. The TGI [34] was greater than 100 µM, the TGI [35] was greater than 100 µM and the TGI [36] was greater than 100 µM. For the same compound, the TGI [37] was greater than 100 µM, the TGI [38] was greater than 100 µM and the TGI [39] was greater than 100 µM. It also gave a TGI [40] greater than 100 µM, a TGI [41] greater than 100 µM and a TGI [42] greater than 100 µM. It also gave a TGI [43] greater than 100 µM, a TGI [44] greater than 100 µM and a TGI [45] greater than 100 µM. For the same compound, the TGI [46] was greater than 100 µM, the TGI [47] was greater than 100 µM and the TGI [48] was greater than 100 µM. For the same compound, the TGI [49] was greater than 100 µM, the TGI [50] was greater than 100 µM and the TGI [51] was greater than 100 µM. The TGI [52] was greater than 100 µM, the TGI [53] was greater than 100 µM and the TGI [54] was greater than 100 µM.
In the case of CCOP(=O)(O)CC1OC(CO)C(O)C1O (stereo not given), the TGI [1] was greater than 100 µM, the TGI [55] was greater than 100 µM and the TGI [2] was greater than 100 µM. It also gave a TGI [3] greater than 100 µM, a TGI [4] greater than 100 µM and a TGI [5] greater than 100 µM. For the same compound, the TGI [6] was greater than 100 µM, the TGI [7] was greater than 100 µM and the TGI [8] was greater than 100 µM. It also gave a TGI [9] greater than 100 µM, a TGI [56] greater than 100 µM and a TGI [10] greater than 100 µM. For the same compound, the TGI [11] was greater than 100 µM, the TGI [12] was greater than 100 µM and the TGI [13] was greater than 100 µM. For the same compound, the TGI [14] was greater than 100 µM, the TGI [15] was greater than 100 µM and the TGI [16] was greater than 100 µM. The TGI [17] was greater than 100 µM, the TGI [18] was greater than 100 µM and the GI50 [19] was 30.1 µM and > 100 µM. It also gave a TGI [19] greater than 100 µM, a TGI [20] greater than 100 µM and a TGI [57] greater than 100 µM. It also gave a TGI [21] greater than 100 µM, a TGI [22] greater than 100 µM and a TGI [23] greater than 100 µM. It also gave a TGI [26] greater than 100 µM, a TGI [27] greater than 100 µM and a TGI [28] greater than 100 µM. For the same compound, the TGI [30] was greater than 100 µM, the TGI [31] was greater than 100 µM and the TGI [32] was greater than 100 µM. For the same compound, the TGI [34] was greater than 100 µM, the TGI [35] was greater than 100 µM and the TGI [36] was greater than 100 µM. The TGI [37] was greater than 100 µM, the TGI [38] was greater than 100 µM and the TGI [39] was greater than 100 µM. For the same compound, the TGI [40] was greater than 100 µM, the TGI [41] was greater than 100 µM and the TGI [58] was greater than 100 µM. It also gave a TGI [43] greater than 100 µM, a TGI [44] greater than 100 µM and a TGI [45] greater than 100 µM. It also gave a TGI [46] greater than 100 µM, a TGI [49] greater than 100 µM and a TGI [59] greater than 100 µM. For the same compound, the TGI [51] was greater than 100 µM, the TGI [52] was greater than 100 µM and the TGI [54] was greater than 100 µM.

From PubChem BioAssay (NCI)
